According to patent US4950686A, “Anti-mycoplasma agent” (Shionogi & Co., Ltd., priority 1986, dated 1990):
In brackets after ≈: the same amount, converted by molar mass. Where a name gives a salt, the structure may show the parent alone. Read-outs that look alike come from different tables or passages of the source. One block for each compound: values may come before it.

Legend:
[1] = system: Mycoplasma gallisepticum S6 (standard strain); test: Anti-mycoplasma activity in vitro (MIC, broth dilution), strain S6; type: cell-based; settings: Mg S6, 37° C., 7 days
Experimental: (§1) (1) Anti-mycoplasma activity test in vitro
(§2) MIC values of each of Tropolones were measured on the following strains according to the following method.
(§3) (a) Mycoplasma gallisepticum
(§4) Medium: Chick PPLO broth supplemented with 20% equine serum (Eiken Kagaku Co., Ltd.)
(§5) Method: Broth dilution method
(§6) Inoculum: Culture incubated at 37° C. for 24-48 hr which is diluted with broth to 10^6 CCU/ml immediately before the use.
(§7) To 1.6 ml of the broth is added 0.2 ml of an agent which has been subjected to 2-fold dilution and then added 0.2 ml of inoculum, which is incubated at 37° C. for 7 days.

[2] = system: Mycoplasma gallisepticum MR-1 (wild strain, tylosin-resistant); test: Anti-mycoplasma activity in vitro (MIC, broth dilution), strain MR-1; type: cell-based; settings: Mg MR-1, 37° C., 7 days
Experimental: as §1, §2, §3
(§8) MR-1 (wild strain, tylosin-resistant)
as §4, §5, §6, §7

[3] = system: Mycoplasma hyopneumoniae ST-11 (standard strain); test: Anti-mycoplasma activity in vitro (MIC, broth dilution), strain ST-11; type: cell-based; settings: Mesomycoplasma hyopneumoniae, Mh ST-11; read-out: MIC
Experimental: as §1, §2
(b) Mycoplasma hyopneumoniae
Strain: ST-11 (standard strain)
Medium: 850 ml of Hanks' solution supplemented with 0.5% lactoalbumin, 50 ml of 25% yeast, 100 ml of equine serum and 4-6 ml of 0.5% phenol red (pH 7.4-7.6)
as §5
Inoculum: Culture which is incubated for 3-4 days and diluted 10 times with the broth if color of the broth becomes yellow then. If it needs over 4 days until color of the broth becomes yellow, it is further subcultured. This is diluted 10 times with the broth to give inoculum.
Assay is done in the same manner as in the above (a).

[4] = system: Mycoplasma gallisepticum T-7-T (wild strain, tylosin-resistant); test: Anti-mycoplasma activity in vitro (MIC, broth dilution), strain T-7-T; type: cell-based; settings: Mycoplasmoides gallisepticum, 168 h, Mg T-7-T, 37° C., 7 days; read-out: MIC
Experimental: as §1, §2, §3
(§9) T-7-T (wild strain, tylosin-resistant)
as §4, §5, §6, §7

[5] = system: Mycoplasma gallisepticum S6 (standard strain); test: Mycoplasma gallisepticum air-sac infection method in chicken, strain S6; type: in vivo, Mycoplasma gallisepticum; SPF chicken (white leghorn); settings: 200 mg/kg × once oral, 20 mg/ml sol. c; for Index of Isolation: inoculum 6.3 × 10^4, trachea ND, range 0-6.0
Experimental: (§10) (2) Test of Effectiveness Mycoplasma gallisepticum air-sac infection method
(§11) Inoculation: To the right air-sac of 9 days old SPF chicken (a white leghorn) which has abstained from water and feed one day before is inoculated 0.20-0.25 ml/chicken of fresh mycoplasma culture incubated for 24-48 hr and diluted with broth (usually 100 times). The concentration in Table 2 is shown in a unit of mg/ml.
(§12) Medium: Chick PPLO broth supplemented with 15% equine serum (Eiken Kagaku Co., Ltd.)
(§13) Administration: A compound of this invention dissolved or suspended in the following solution is orally and forcibly administered once by a cannula immediately after the infection.
(§14) Anatomization and Isolation of Microorganism: The chickens are anatomized 5 days after the infection, and the right and left air sacs are investigated whether they are attacked with a disease or not. The change caused by the disease is represented in four degrees; -: no change, +: slight, ++: medium and +++: serious. Microorganism is isolated from the right and left air-sacs and the trachea by using a sterilized applicator.
(§15) Judgement: Judgement is done through an index of an air-sac disease and an index of a microorganism-isolation.
(§16) Index of an air-sac-disease: First, indexes in the right and left air-sacs are separately calculated according to the following formula;
(§17) {degree of disease (0-3)×chickens}/anatomized chickens
(§18) and the index is calculated by the following formula;
(§19) (index of right air-sac)×1+(index of left air-sac)×2
(§20) Index of a microorganism isolation:
(§21) P: chickens from the right air-sac of which microorganism is isolated,
(§22) Q: chickens from the trachea of which microorganism is isolated,
(§23) R: chickens from the left air-sac of which microorganism is isolated, and
(§24) S: chickens investigated.

[6] = system: Mycoplasma gallisepticum MR-1 (wild strain, tylosin-resistant); test: Mycoplasma gallisepticum air-sac infection method in chicken, strain MR-1;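 as to Index of Isolation: index = (P×1 + Q×2 + R×3)/S with range 0 to 6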; type: in vivo, Mycoplasma gallisepticum; SPF chicken (white leghorn); settings: 100 mg/kg × once oral, 10 mg/ml sol. b
Experimental: as §10, §8, §11, §12, §13, §14, §15, §16, §17, §18, §19, §20, §21, §22, §23, §24

[7] = system: Mycoplasma gallisepticum T-7-T (wild strain, tylosin-resistant); test: Mycoplasma gallisepticum air-sac infection method in chicken, strain T-7-T; type: in vivo, Mycoplasma gallisepticum; SPF chicken (white leghorn);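 as to Index of Isolation: index = (P×1 + Q×2 + R×3)/S with range 0 to 6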
Experimental: as §10, §9, §11, §12, §13, §14, §15, §16, §17, §18, §19, §20, §21, §22, §23, §24

[8] = Mycoplasmoides gallisepticum, 168 h, read-out: MIC
[9] = 100 mg/kg × once oral, 10 mg/ml sol. b, inoculum 10^2
[10] = 200 mg/kg × once oral, 20 mg/ml DW, inoculum 1.9 × 10^5
[11] = 200 mg/kg × once oral, 20 mg/ml DW, inoculum 1.9 × 10^5, range 0-6.0
[12] = 200 mg/kg × once oral, 20 mg/ml DW, inoculum 1.9 × 10^5, range 0-9.0
[13] = inoculum 6.3 × 10^4, calcium salt

Compound: C=CCOc1cccccc1=O [Compound 22, O-Allyltropolone]
MIC [1, 8]: > 25 µg/mL
MIC [3]: 25 µg/mL (≈ 154 µM)

Compound: O=c1cccccc1O [Compound 9, Tropolone ethanolamine salt]
Change of air-sac, left: + (chickens) ([5]; inoculum 6.3 × 10^4): 0
Change of air-sac, left: ++ (chickens) ([5]; inoculum 6.3 × 10^4): 0
Change of air-sac, left: +++ (chickens) ([5]; inoculum 6.3 × 10^4): 0
Change of air-sac, left: - (chickens) ([5]; inoculum 6.3 × 10^4): 5
Change of air-sac, right: + (chickens) ([5]; inoculum 6.3 × 10^4): 1
Change of air-sac, right: ++ (chickens) ([5]; inoculum 6.3 × 10^4): 0
Change of air-sac, right: +++ (chickens) ([5]; inoculum 6.3 × 10^4): 0
Change of air-sac, right: - (chickens) ([5]; inoculum 6.3 × 10^4): 4
Isolation, L (left air-sac) ([5]; inoculum 6.3 × 10^4): 0
Isolation, R (right air-sac) ([5]; inoculum 6.3 × 10^4): 1
Mycoplasma Isolated Chickens ([5]; inoculum 6.3 × 10^4): 1
Index of Disease ([5]; inoculum 6.3 × 10^4, range 0-9.0): 0.2
Index of Isolation [5]: 0.2
MIC [1]: 3.13 µg/mL
MIC [2]: 3.13 µg/mL

Compound: CC(C)(C)OC(=O)COc1cccccc1=O [Compound 18, O-(tert-Butyloxycarbonylmethyl)tropolone]
MIC [1, 8]: > 25 µg/mL
MIC [3]: > 25 µg/mL

Compound: CC[C@H]1OC(=O)C[C@@H](O)[C@H](C)[C@@H](O[C@@H]2O[C@H](C)[C@@H](O[C@H]3C[C@@](C)(O)[C@@H](O)[C@H](C)O3)[C@H](N(C)C)[C@H]2O)[C@@H](CC=O)C[C@@H](C)C(=O)/C=C/C(C)=C/[C@@H]1CO[C@@H]1O[C@H](C)[C@@H](O)[C@@H](OC)[C@H]1OC [tylosin, reference compound]
Change of air-sac, left: + (chickens) ([6]; inoculum 0.3 × 10^5): 1
Change of air-sac, left: ++ (chickens) ([6]; inoculum 0.3 × 10^5): 0
Change of air-sac, left: +++ (chickens) ([6]; inoculum 0.3 × 10^5): 0
Change of air-sac, left: - (chickens) ([6]; inoculum 0.3 × 10^5): 5
Change of air-sac, right: + (chickens) ([6]; inoculum 0.3 × 10^5): 0
Change of air-sac, right: ++ (chickens) ([6]; inoculum 0.3 × 10^5): 3
Change of air-sac, right: +++ (chickens) ([6]; inoculum 0.3 × 10^5): 3
Change of air-sac, right: - (chickens) ([6]; inoculum 0.3 × 10^5): 0
Isolation, L (left air-sac) ([6]; inoculum 0.3 × 10^5): 6
Isolation, R (right air-sac) ([6]; inoculum 0.3 × 10^5): 6
Isolation, T (trachea) ([6]; inoculum 0.3 × 10^5): 6
Mycoplasma Isolated Chickens ([6]; inoculum 0.3 × 10^5): 6
Index of Isolation ([6]; inoculum 0.3 × 10^5, range 0-6.0): 6.0
Index of Disease ([6]; inoculum 0.3 × 10^5, range 0-9.0): 2.8
Change of air-sac, left: + (chickens) [7, 9]: 0
Change of air-sac, left: ++ (chickens) [7, 9]: 2
Change of air-sac, left: +++ (chickens) [7, 9]: 0
Change of air-sac, left: - (chickens) [7, 9]: 6
Change of air-sac, right: + (chickens) [7, 9]: 1
Change of air-sac, right: ++ (chickens) [7, 9]: 5
Change of air-sac, right: +++ (chickens) [7, 9]: 1
Change of air-sac, right: - (chickens) [7, 9]: 1
Isolation, L (left air-sac) [7, 9]: 8
Isolation, R (right air-sac) [7, 9]: 7
Isolation, T (trachea) [7, 9]: 8
Mycoplasma Isolated Chickens [7, 9]: 8
Index of Isolation ([7]; 100 mg/kg × once oral, 10 mg/ml sol. b, inoculum 10^2, range 0-6.0): 5.60
Index of Disease ([7]; 100 mg/kg × once oral, 10 mg/ml sol. b, inoculum 10^2, range 0-9.0): 2.80
Change of air-sac, left: + (chickens) [7, 10]: 0
Change of air-sac, left: ++ (chickens) [7, 10]: 0
Change of air-sac, left: +++ (chickens) [7, 10]: 0
Change of air-sac, left: - (chickens) [7, 10]: 5
Change of air-sac, right: + (chickens) [7, 10]: 0
Change of air-sac, right: ++ (chickens) [7, 10]: 1
Change of air-sac, right: +++ (chickens) [7, 10]: 4
Change of air-sac, right: - (chickens) [7, 10]: 0
Isolation, L (left air-sac) [7, 10]: 4
Isolation, R (right air-sac) [7, 10]: 5
Isolation, T (trachea) [7, 10]: 5
Mycoplasma Isolated Chickens [7, 10]: 5
Index of Isolation [7, 11]: 5.4
Index of Disease [7, 12]: 2.8

Compound: C[C@H]1c2cccc(O)c2C(=O)C2=C(O)[C@]3(O)C(=O)C(C(N)=O)=C(O)[C@@H](N(C)C)[C@@H]3[C@@H](O)[C@@H]21 [doxycycline, reference compound]
Change of air-sac, left: + (chickens) [7, 10]: 2
Change of air-sac, left: ++ (chickens) [7, 10]: 1
Change of air-sac, left: +++ (chickens) [7, 10]: 0
Change of air-sac, left: - (chickens) [7, 10]: 2
Change of air-sac, right: + (chickens) [7, 10]: 0
Change of air-sac, right: ++ (chickens) [7, 10]: 4
Change of air-sac, right: +++ (chickens) [7, 10]: 0
Change of air-sac, right: - (chickens) [7, 10]: 1
Isolation, L (left air-sac) [7, 10]: 5
Isolation, R (right air-sac) [7, 10]: 5
Isolation, T (trachea) [7, 10]: 5
Mycoplasma Isolated Chickens [7, 10]: 5
Index of Isolation [7, 11]: 6.0
Index of Disease [7, 12]: 3.2

Compound: O=c1cccccc1O [Compound 5, Tropolone calcium salt]
Change of air-sac, left: + (chickens) ([5]; inoculum 6.3 × 10^4): 0
Change of air-sac, left: ++ (chickens) ([5]; inoculum 6.3 × 10^4): 0
Change of air-sac, left: +++ (chickens) ([5]; inoculum 6.3 × 10^4): 0
Change of air-sac, left: - (chickens) ([5]; inoculum 6.3 × 10^4): 5
Change of air-sac, right: ++ (chickens) ([5]; inoculum 6.3 × 10^4): 0
Change of air-sac, right: +++ (chickens) ([5]; inoculum 6.3 × 10^4): 0
Isolation, L (left air-sac) ([5]; inoculum 6.3 × 10^4): 0
Isolation, R (right air-sac) ([5]; inoculum 6.3 × 10^4): 1
Mycoplasma Isolated Chickens ([5]; inoculum 6.3 × 10^4): 1
Change of air-sac, right: + (chickens) [5, 13]: 0
Change of air-sac, right: - (chickens) [5, 13]: 5
Index of Disease ([5]; inoculum 6.3 × 10^4, range 0-9.0, calcium salt): 0
Index of Isolation [5]: 0.2
MIC ([1]; calcium salt): 3.13 µg/mL
MIC ([2]; calcium salt): 1.56 µg/mL

The next lines start with the values.

MIC [1, 8]: 6.25 µg/mL (≈ 38.3 µM)
MIC [2, 8]: 12.5 µg/mL (≈ 76.6 µM)
MIC [3]: 0.39 µg/mL (≈ 2.39 µM)
MIC [4]: 6.25 µg/mL (≈ 38.3 µM)
Compound: N#CSc1cccccc1=O [Compound 15, 2-Thiocyanatotropone]

MIC [1, 8]: > 25 µg/mL
MIC [3]: > 25 µg/mL
MIC [4]: > 25 µg/mL
Compound: CCOC(=O)C(C)Oc1cccccc1=O (stereo not shown) [Compound 20, O-(1-Ethoxycarbonylethyl)tropolone]

MIC [1, 8]: 0.78 µg/mL (≈ 3.25 µM)
MIC [3]: 0.2 µg/mL (≈ 0.832 µM)
Compound: O=C(COc1cccccc1=O)c1ccccc1 [Compound 21, O-(Benzoylmethyl)tropolone]

MIC [1, 8]: 3.13 µg/mL (≈ 11.3 µM)
MIC [3]: 6.25 µg/mL (≈ 22.6 µM)
Compound: Cc1ccc(S(=O)(=O)Oc2cccccc2=O)cc1 [Compound 16, O-(p-Toluensulfonyl)tropolone]

MIC [1, 8]: > 25 µg/mL
MIC [3]: > 25 µg/mL
Compound: CC(Oc1cccccc1=O)C(=O)O (stereo not shown) [Compound 17, O-(1-Carboxyethyl)tropolone]
